Measured values published in US20170209574A1, “COMBINATION THERAPIES” (Novartis AG, priority 2014, published 2017).

Assays:
PD-L1 (CD274) [1] = experiment: TaqMan RT PCR of PD-L1 mRNA in LOXIMV1 tumor xenograft model; format: in vivo, human; conditions: tumor xenograft model bearing LOXIMV1 (BRAF mutant melanoma); FIG. 4
Experimental: (§1) TaqMan RT PCR assays were developed to detect changes of expression levels of PD-L1 (CD274) in cell lines and xenograft tumors. mRNA was isolated from frozen cell pellets or tumor fragments using the Qiagen RNeasy Mini kit. Isolated RNA was frozen at −80° C. RNA quality was checked and RNA was quantified using a 2100 Agilent Bioanalyzer following the protocol for the Agilent RNA 6000 Nano Kit. cDNA was prepared using a High Capacity RNA- to cDNA Kit (Applied Biosystems).
(§2) Real-time PCR reactions were carried out in 20 μl total volume, including 10 μl of Universal PCR master mix (Applied Biosystems), 1 μl of human PD-L1 (CD274) probe/primer set (Applied Biosystems), and 8 μl of cDNA. Each sample was run in triplicate. The amount of cDNA produced from 25-50 ng of RNA in the reverse transcription reaction was used in each PCR reaction. Due to difference in mRNA levels between PD-L1 and GAPDH, the two real-time PCR reactions were done in separate tubes using same amount of cDNA. The real-time PCR reaction was run on the C1000 Thermal Cycle (BioRad) with the cycle program as follows: a 10 minute incubation at 95° C. followed by 40 cycles of 95° C. for 15 seconds and 60° C. for 1 minute. After the reaction was complete, the PD-L1 average Ct was normalized relative to each Ct value from the GAPDH reference reaction. Each normalized logarithmic value was then converted into a linear value.

PD-L1 (CD274) [2] = experiment: TaqMan RT PCR of PD-L1 mRNA in HEYA8 tumor xenograft model; format: in vivo, human; conditions: tumor xenograft model bearing HEYA8 (KRAS mutant ovarian cancer); FIG. 5
Experimental: as §1, §2

[3] = tested on: EGFR mutant (L858R, ex19del and T790M) cancer models; conditions: cited from earlier work
TIM-3 = experiment: CyTOF mass cytometry of PBMCs (immune checkpoint modulation); format: cell-based, human; conditions: PBMCs +/- 100 ng/mL anti-CD3, 100 nM LCL161, 4 days; monocytes, naive, memory and activated T killer cells, memory T helper cells; FIG. 9
Experimental: PBMCs were isolated from healthy donors via BD CPT™ vacutainer tubes. 1 million cells/mL were plated in RPMI+10% FBS+/−100 ng/mL of anti-CD3 antibody+/−DMSO or 100 nM LCL161 for 4 days. Cells were harvested, washed, stained with a panel of metal-conjugated antibodies listed below in Table 2 for analysis by CyTOF mass cytometry. Data were visualized by SPADE using Cytobank webware. SPADE and its use are described, e.g., in Peng et al., Nature Biotechnology, 29, 886-891 (2011); Sean et al, Science, 332 (6030): 687-696 (2011).
A Panel of Metal-Conjugated Antibodies for Analysis by CyTOF Mass Cytometry

[4] = tested on: human CD4+ and CD8+ T cells; experiment: CFSE proliferation analysis of anti-CD3 stimulated PBMCs (FACS); format: cell-based; conditions: 1 ug/ml soluble anti-CD3, increasing concentrations of LCL161, 5 days
Experimental: For the proliferation analyses, cells were labeled with 5 uM carboxyfluorescein diacetate succinimidyl ester (CFSE) before stimulation, and then treated with 1 ug/ml soluble anti-CD3. Covalently bound CFSE is divided equally between daughter cells, allowing discrimination of successive rounds of cell division and to track proliferating cells (Lyons et al., Curr Protoc Cytom. 2013; Chapter 9: Unit 9.11). PBMCs were stimulated in the presence of increasing concentrations of LCL161 (or DMSO control) for 5 days. At day 5 post stimulation, cells were harvested, stained with anti-CD4, -CD8, -PD-1, or -CD127, followed by FACS analysis. Results for one donor are shown. Similar results were obtained with PBMCs from 4 other donors.

PBMCs = experiment: Cytokine analysis (Luminex) of anti-CD3 stimulated PBMCs; format: cell-based, human; conditions: suboptimal anti-CD3 0.005 ug/ml, LCL161 1, 50, 100 or 1000 nM, day 5 supernatants
Experimental: Blood was obtained from normal healthy donors. Peripheral blood mononuclear cells (PBMCs) were isolated by centrifuging blood in CPT™ tubes for 18 minutes at 1800×g. Cells were washed twice with cold PBS, enumerated and then stimulated in 96-well round bottomed tissue culture plates (500,000 cells per well) for 5 days at 37° C., 5% CO2. Cells were either left untreated (DMSO control) or treated with different concentrations of LCL161 (1, 50, 100, or 1000 nM). For the cytokine analyses, cells were stimulated with a suboptimal anti-CD3 stimulus (0.005 ug/ml of soluble clone UCHT1). At day 5 post stimulation, supernatants were collected and analyzed for cytokines (Luminex).

[5] = tested on: ALK-positive NSCLC patients; experiment: Clinical study of LDK378 in ALK-positive NSCLC patients; format: in vivo, human; conditions: 750 mg; 53.3% of the patients censored
PD-L1 (CD274) [6] = experiment: TaqMan RT PCR of PD-L1 mRNA in H3122 cells in vitro; format: cell-based, human; conditions: H3122 (NSCLC with ALK translocation) in vitro; FIG. 3
Experimental: as §1, §2

PD-L1 (CD274) [7] = experiment: Flow cytometry of PD-L1 surface expression in EBC-1 cells treated with INC280; format: cell-based, human; conditions: EBC-1 cells (NSCLC with cMET amplification), in vitro; INC280 10, 100, 1000 nM for 24, 48, 72 hours; FIG. 1
Experimental: PD-L1 (CD274) expression was analyzed in cancer cell lines treated with INC280. Cells were obtained from ATCC and cultured in vitro following ATCC directions. The cell lines used were previously characterized by the Cancer Cell Line Encyclopedia Project (www.broadinstitute.org/ccle/home).
Cells plated in six-well culture plates were treated with the INC280 at different concentrations (10 nM, 100 nM, and 1000 nM) for 24, 48 and 72 hours. Equal amount of vehicle (DMSO) was used as a control. Cells were washed with PBS and then harvested using a cell scraper.
For each reaction, 0.5-1×10^6 cells were stained with 200 μL of anti-human monoclonal PD-L1-PE antibody, clone M1H1 (BD) for 30-60 minutes at 4° C. Cells were washed twice and data was acquired using a Canto II with FACSDiva software (BD Bioscience). Data analysis was performed using FlowJo software (Tree Star). Mean fluorescence intensity (MFI) was determined by gating on single cells. Unstained cells were used as a gating control.

PD-L1 (CD274) [8] = experiment: TaqMan RT PCR of PD-L1 mRNA in Hs.746.T tumor xenograft; format: in vivo, human; conditions: Hs.746.T tumor (gastric cancer cell with cMET amplification & mutation) xenograft; FIG. 2
Experimental: as §1, §2

PD-L1 (CD274) [9] = experiment: TaqMan RT PCR of PD-L1 mRNA in UKE-1 tumor xenograft model; format: in vivo, human; conditions: tumor xenograft model bearing UKE-1 (MPN line with JAK2V617F mutation); FIG. 6
Experimental: as §1, §2

## COC(=O)N[C@@H](C)CNc1nccc(-c2cn(C(C)C)nc2-c2cc(Cl)cc(NS(C)(=O)=O)c2F)n1 [LGX818, methyl (S)-(1-((4-(3-(5-chloro-2-fluoro-3-(methylsulfonamido)phenyl)-1-isopropyl-1H-pyrazol-4-yl)pyrimidin-2-yl)amino)propan-2-yl)carbamate]
PD-L1 (CD274) [1]
  PD-L1 mRNA: Downregulation of PD-L1 mRNA

## Cn1cnc2c(F)c(Nc3ccc(Br)cc3F)c(C(=O)NOCCO)cc21 [MEK162, 5-((4-bromo-2-fluorophenyl)amino)-4-fluoro-N-(2-hydroxyethoxy)-1-methyl-1H-benzo[d]imidazole-6-carboxamide]
PD-L1 (CD274) [2]
  PD-L1 mRNA: Downregulation of PD-L1 mRNA

## Cc1cc(C(=O)Nc2nc3cccc(Cl)c3n2[C@@H]2CCCCN(C(=O)/C=C/CN(C)C)C2)ccn1 [EGF816, (R,E)-N-(7-chloro-1-(1-(4-(dimethylamino)but-2-enoyl)azepan-3-yl)-1H-benzo[d]imidazol-2-yl)-2-methylisonicotinamide]
[3]; L858R, ex19del and T790M, in vitro and in vivo
  efficacy in EGFR mutant cancer models: significant efficacy
[3]; at clinically relevant efficacious concentrations
  WT EGFR inhibition: no indication of WT EGFR inhibition

## CN[C@@H](C)C(=O)N[C@H](C(=O)N1CCC[C@H]1c1nc(C(=O)c2ccc(F)cc2)cs1)C1CCCCC1 [LCL161, (S)—N—((S)-1-cyclohexyl-2-((S)-2-(4-(4-fluorobenzoyl)thiazol-2-yl)pyrrolidin-1-yl)-2-oxoethyl)-2-(methylamino)propanamide]
TIM-3
  TIM-3 expression: increase in TIM-3 expression
[4]; FIG. 8A
  proliferation of CD4+ T cells (CFSE dilution): enhanced proliferation
[4]; FIG. 8B
  proliferation of CD8+ T cells (CFSE dilution): enhanced proliferation
PBMCs; FIG. 7A
  IFN-gamma production: increases in immune-active cytokine, IFN-gamma
PBMCs; FIG. 7B
  IL-10 production: reduction in immune-suppressive cytokine IL-10

## Cc1cc(Nc2ncc(Cl)c(Nc3ccccc3S(=O)(=O)C(C)C)n2)c(OC(C)C)cc1C1CCNCC1 [LDK378, 5-chloro-N2-(2-isopropoxy-5-methyl-4-(piperidin-4-yl)-phenyl)-N4-[2-(propane-2-sulfonyl)-phenyl]-pyrimidine-2,4-diamine]
[5]
  median progression-free survival (PFS): 8.21 months
PD-L1 (CD274) [6]
  PD-L1 mRNA: Inhibition of PD-L1 mRNA

## CNC(=O)c1ccc(-c2cnc3ncc(Cc4ccc5ncccc5c4)n3n2)cc1F [INC280, 2-fluoro-N-methyl-4-[7-(quinolin-6-ylmethyl)imidazo[1,2-b][1,2,4]triazin-2-yl]benzamide]
PD-L1 (CD274) [7]
  surface expression of PD-L1 (flow cytometry): significant downregulation of surface expression of PD-L1
PD-L1 (CD274) [8]
  PD-L1 expression (mRNA): Inhibition of PD-L1 expression (mRNA)

## N#CC[C@H](C1CCCC1)n1cc(-c2ncnc3[nH]ccc23)cn1 [INC424, (3R)-3-cyclopentyl-3-[4-(7H-pyrrolo-[2,3-d]pyrimidin-4-yl)-1H-pyrazol-1-yl]propanenitrile]
PD-L1 (CD274) [9]
  PD-L1 mRNA: Downregulation of PD-L1 mRNA
